Patent publication US10479792B2, “Compounds” (GlaxoSmithKline Intellectual Property Development Limited, priority 2015, dated 2019)

How the values were obtained:
Leishmania donovani [1] = assay: Intramacrophage Leishmania donovani assay (Assay 1), average number of amastigotes per cell (potency readout); type: cell-based; conditions: THP-1, 96 h, amastigotes in PMA-differentiated THP-1 macrophages, 96 h incubation, read-out: pEC50 value against Leishmania donovani (converted)
Method: Assay 1. Intramacrophage Leishmania donovani Assay
The intramacrophage Leishmania assay was performed using a modified version of the method described in De Rycker et al. (Antimicrob Agents Chemother. 2013 July; 57(7):2913-22. Comparison of a high-throughput high-content intracellular Leishmania donovani assay with an axenic amastigote assay. De Rycker M, Hallyburton I, Thomas J, Campbell L, Wyllie S, Joshi D, Cameron S, Gilbert I H, Wyatt P G, Frearson J A, Fairlamb A H, Gray D W.). Procedure: 350 nl of compound was pre-dispensed into 384 well sterile intermediary plates. For single point screening, amphotericin B was added to all wells of column 24 as a positive control (final concentration 2 μM) and DMSO to column 23. For potency determinations, ten-point, one in three dilution curves were created with the highest concentration being 50 μM and on each plate a control curve of amphotericin B was included. Controls were as follows: columns 11 and 12: DMSO, columns 23 and 24: amphotericin B (final concentration 2 μM). To the intermediary plates, 35 μl of THP-1 media was added and plates were shaken for >5 min to ensure complete mixing. THP-1 cells (8,000 per well, 50 μl) were plated into black clear-bottom 384 well plates (Corning) in presence of 20 nM PMA. After 20 min at RT, the plates were incubated at 37° C. under 5% CO2 in a humidified incubator for 75 h. The cells were then washed with […] sterile phosphate buffered saline (PBS) supplemented with 1 mM CaCl2, 0.5 mM MgCl2, 0.1% (w/v) bovine serum albumin (PBS-A) and amastigotes were added to all wells at a multiplicity of infection of 5 (40,000 amastigotes per well). After 40 min at RT, plates were returned to the incubator. Amastigotes were incubated in the presence of THP-1 macrophages for 16 h. Any remaining extracellular amastigotes were subsequently removed with an overflow wash of 1 mL PBS-A per well (wash buffer is being aspirated from the top of the well as it is being dispensed) followed by addition of 25 μl of the compound pre-dilutions using a Fluidx Ipette-pro pipetting station. The final dilution of each compound was 200-fold. Plates were incubated for 96 h and then washed (250 μl PBS-A) and fixed (4% (v/v) formaldehyde-PBS, 30 min, RT). After fixation, the wells were washed with 250 μl PBS, stained (10 μg/mL DAPI, 0.4 μg mL-1 HCS Cellmask Deep Red in PBS+0.1% (v/v) Triton X-100, 30 min, RT) and washed with 250 μl PBS. Finally, PBS+0.05% (v/v) thimerosal was added to the wells, the plates were sealed and imaged on a high-content microscope (GE IN Cell 2000) using a 10× objective. Image analysis was carried out with GE IN Cell Analyzer 1000 Workstation using the “Multi Target Analysis” module. Settings for segmentation were as follows: nuclei: minimum area: 142.384 μm2, sensitivity: 81, method: top-hat; cells: characteristic area: 2500 μm2, sensitivity: 60, method: multiscale top-hat; organelles (amastigotes): granule size 1-3, 3 scales, sensitivity: 90, detection in entire cell. For each well, i) THP-1 cell count (cytotoxicity readout) and ii) average number of amastigotes per cell (potency readout) were calculated, both in terms of pEC50 values.

Leishmania donovani [2] = assay: Leishmania donovani intracellular assay (Assay 5); type: cell-based; conditions: THP-1, 96 h, eGFP amastigotes in THP-1 cells, 96 h incubation, read-out: pEC50 value against Leishmania donovani (converted)
Method: Assay 5. Leishmania donovani Intracellular Assay
Compounds were dispensed into black 384-well assay plates (Greiner) by acoustic dispensing (LabCyte ECHO). For potency determinations, eleven-point, one in three dilution curves were generated, with a top concentration of 50 μM. THP-1 human monocytes cells were dispensed in T225 tissue culture flasks and differentiated using 30 nM of PMA, after 24 hours they were infected overnight using Leishmania donovani expressing Green Fluorescent Protein (eGFP) amastigotes in the same T225 tissue culture flasks at a multiplicity of infection of 10. Next, any remaining free amastigotes were washed away with PBS and the infected THP-1 cells were harvested by trypsinisation. The infected cells were then plated into 384-well plates containing the compounds to be tested, at 3000 cells per well in RPMI media with 2% FBS and 25 mM Sodium bicarbonate. After 96 h incubation at 37° C. in presence of 5% CO2, the plates were fixed with 4% formaldehyde for 30 minutes, washed with PBS and stained with 0.1 mg/mL of DAPI for 30 minutes and washed again with PBS. The plates were imaged on a Perkin Elmer Opera high-content imaging system using a 20× air objective with two expositions, one for DAPI stain and other for eGFP. Images were analysed using the Acapella building blocks system (Perkin Elmer). The image analysis algorithm first identified the THP-1 nuclei followed by demarcation of the cytoplasm and identification of intracellular amastigotes. This algorithm reported mean number of parasites per THP-1 cell, the percentage of infected THP-1 cells and the total number of THP-1 cells.

O=C(Nc1ccc(F)c(-c2cc(C(=O)N3CCCC3)n3ccnc3n2)c1)N1CCCC1 [Example 50, N-(4-fluoro-3-(5-(pyrrolidine-1-carbonyl)imidazo[1,2-a]pyrimidin-7-yl)phenyl)pyrrolidine-1-carboxamide]
EC50 (Leishmania donovani [1]): > 50.1 µM
EC50 (Leishmania donovani [2]): 12.6 to 39.8 µM

CC1COCCN1c1cnc2nc(-c3cc(NC(=O)N4CCCC4)ccc3F)ccn12 (stereo not shown) [Example 31, N-(4-fluoro-3-(3-(3-methylmorpholino)imidazo[1,2-a]pyrimidin-7-yl)phenyl)pyrrolidine-1-carboxamide]
EC50 (Leishmania donovani [1]): 0.251 to 10 µM
EC50 (Leishmania donovani [2]): 0.126 to 10 µM

O=C(Nc1ccc(F)c(-c2ccn3c(C4COCCN4)cnc3n2)c1)N1CCCC1 (stereo not shown) [Example 38, N-(4-fluoro-3-(3-(morpholin-3-yl)imidazo[1,2-a]pyrimidin-7-yl)phenyl)pyrrolidine-1-carboxamide]
EC50 (Leishmania donovani [1]): 12.6 to 20 µM

O=C(Nc1ccc(F)c(-c2ccn3c(N4CCNCC4)cnc3n2)c1)N1CCCC1 [Example 32, N-(4-fluoro-3-(3-(piperazin-1-yl)imidazo[1,2-a]pyrimidin-7-yl)phenyl)pyrrolidine-1-carboxamide]
EC50 (Leishmania donovani [1]): > 50.1 µM
EC50 (Leishmania donovani [2]): 12.6 to 39.8 µM

CC1CN(c2cnc3nc(-c4cc(NC(=O)N5CCCC5)ccc4F)ccn23)CCO1 (stereo not shown) [Example 29, N-(4-fluoro-3-(3-(2-methylmorpholino)imidazo[1,2-a]pyrimidin-7-yl)phenyl)pyrrolidine-1-carboxamide]
EC50 (Leishmania donovani [1]): 0.251 to 10 µM
EC50 (Leishmania donovani [2]): 0.126 to 10 µM

O=C(Nc1cccc(-c2cnn3c(-c4ccccc4)cnc3n2)c1)N1CCCC1 [Example 10, N-(3-(7-phenylimidazo[1,2-b][1,2,4]triazin-3-yl)phenyl)pyrrolidine-1-carboxamide]
EC50 (Leishmania donovani [1]): 0.251 to 10 µM

O=C(Nc1ccc(F)c(-c2ccn3c(CC4CCCO4)cnc3n2)c1)N1CCCC1 (stereo not shown) [Example 45, N-(4-fluoro-3-(3-((tetrahydrofuran-2-yl)methyl)imidazo[1,2-a]pyrimidin-7-yl)phenyl)pyrrolidine-1-carboxamide]
EC50 (Leishmania donovani [2]): 0.126 to 10 µM

O=C(Nc1cccc(-c2cnn3c(N4CCOCC4)cnc3n2)c1)N1CCCC1 [Example 9, N-(3-(7-morpholinoimidazo[1,2-b][1,2,4]triazin-3-yl)phenyl)pyrrolidine-1-carboxamide]
EC50 (Leishmania donovani [1]): 0.251 to 10 µM

CC(=O)N1CCN(c2cnc3nc(-c4cc(NC(=O)N5CCCC5)ccc4F)ccn23)CC1 [Example 48, N-(3-(3-(4-acetylpiperazin-1-yl)imidazo[1,2-a]pyrimidin-7-yl)-4-fluorophenyl)pyrrolidine-1-carboxamide]
EC50 (Leishmania donovani [1]): > 50.1 µM
EC50 (Leishmania donovani [2]): 0.126 to 10 µM

O=C(Nc1ccc(F)c(-c2ccn3c(N4CCOCC4)cnc3n2)c1)N1CC[C@@H](F)C1 [Example 23, 3-fluoro-N-(4-fluoro-3-(3-morpholinoimidazo[1,2-a]pyrimidin-7-yl)phenyl)pyrrolidine-1-carboxamide]
EC50 (Leishmania donovani [2]): 0.126 to 10 µM

C[C@H]1CCN(C(=O)Nc2ccc(F)c(-c3ccn4c(N5CCOCC5)cnc4n3)c2)C1 [Example 34a]
EC50 (Leishmania donovani [1]): 0.251 to 10 µM

CC1(C)COCCN1c1cnc2nc(-c3cc(NC(=O)N4CCCC4)ccc3F)ccn12 [Example 42, N-(3-(3-(3,3-dimethylmorpholino)imidazo[1,2-a]pyrimidin-7-yl)-4-fluorophenyl)pyrrolidine-1-carboxamide]
EC50 (Leishmania donovani [1]): 0.251 to 10 µM
EC50 (Leishmania donovani [2]): 0.126 to 10 µM

N#Cc1ccc(NC(=O)N2CCCC2)cc1-c1ccn2c(N3CCOCC3)cnc2n1 [N-(4-cyano-3-(3-morpholinoimidazo[1,2-a]pyrimidin-7-yl)phenyl)pyrrolidine-1-carboxamide]
EC50 (Leishmania donovani [1]): > 50.1 µM

Cc1nc(C)c(C(=O)Nc2ccc(F)c(-c3ccn4c(N5CCOCC5)cnc4n3)c2)o1 [Example 39, N-(4-fluoro-3-(3-morpholinoimidazo[1,2-a]pyrimidin-7-yl)phenyl)-2,4-dimethyloxazole-5-carboxamide]
EC50 (Leishmania donovani [1]): 0.251 to 10 µM
EC50 (Leishmania donovani [2]): 0.126 to 10 µM

C[C@@H]1CN(c2cnc3nc(-c4cc(NC(=O)N5CCCC5)ccc4F)ccn23)C[C@H](C)O1 [Example 30, N-(3-(3-((2S,6R)-2,6-dimethylmorpholino)imidazo[1,2-a]pyrimidin-7-yl)-4-fluorophenyl)pyrrolidine-1-carboxamide]
EC50 (Leishmania donovani [1]): 0.251 to 10 µM
EC50 (Leishmania donovani [2]): 0.126 to 10 µM

CC1(C)CCN(C(=O)Nc2ccc(F)c(-c3ccn4c(N5CCOCC5)cnc4n3)c2)C1 [N-(4-fluoro-3-(3-morpholinoimidazo[1,2-a]pyrimidin-7-yl)phenyl)-3,3-dimethylpyrrolidine-1-carboxamide]
EC50 (Leishmania donovani [1]): > 50.1 µM

O=C(Nc1ccc(F)c(-c2ccn3c(N4CCOCC4)cnc3n2)c1)N1CCC1 [Example 51, N-(4-fluoro-3-(3-morpholinoimidazo[1,2-a]pyrimidin-7-yl)phenyl)azetidine-1-carboxamide]
EC50 (Leishmania donovani [2]): 0.126 to 10 µM

O=C(Nc1ccc(F)c(-c2ccn3c(N4CCCOCC4)cnc3n2)c1)N1CCCC1 [Example 22, N-(3-(3-(1,4-oxazepan-4-yl)imidazo[1,2-a]pyrimidin-7-yl)-4-fluorophenyl)pyrrolidine-1-carboxamide]
EC50 (Leishmania donovani [1]): 0.251 to 10 µM
EC50 (Leishmania donovani [2]): 0.126 to 10 µM

Cc1cc(F)c(-c2ccn3c(N4CCOCC4)cnc3n2)cc1NC(=O)N1CCCC1 [N-(4-fluoro-2-methyl-5-(3-morpholinoimidazo[1,2-a]pyrimidin-7-yl)phenyl)pyrrolidine-1-carboxamide]
EC50 (Leishmania donovani [1]): > 50.1 µM

O=C(Nc1ccc(F)c(-c2cnn3ccnc3n2)c1)N1CCCC1 [Example 11, N-(4-fluoro-3-(imidazo[1,2-b][1,2,4]triazin-3-yl)phenyl)pyrrolidine-1-carboxamide]
EC50 (Leishmania donovani [1]): 12.6 to 20 µM

CC1(C)CN(C(=O)Nc2ccc(F)c(-c3ccn4c(N5CCOCC5)cnc4n3)c2)C1 [N-(4-fluoro-3-(3-morpholinoimidazo[1,2-a]pyrimidin-7-yl)phenyl)-3,3-dimethylazetidine-1-carboxamide]
EC50 (Leishmania donovani [1]): > 50.1 µM

O=C(Nc1ccc(F)c(-c2cnn3c(N4CCOCC4)cnc3n2)c1)N1CCCC1 [Example 8, N-(4-fluoro-3-(7-morpholinoimidazo[1,2-b][1,2,4]triazin-3-yl)phenyl)pyrrolidine-1-carboxamide]
EC50 (Leishmania donovani [1]): 0.251 to 10 µM

O=C1CN(c2cnc3nc(-c4cc(NC(=O)N5CCCC5)ccc4F)ccn23)CCN1 [Example 52, N-(4-fluoro-3-(3-(3-oxopiperazin-1-yl)imidazo[1,2-a]pyrimidin-7-yl)phenyl)pyrrolidine-1-carboxamide]
EC50 (Leishmania donovani [1]): > 50.1 µM

CC1(C)CCCN1C(=O)Nc1ccc(F)c(-c2ccn3c(N4CCOCC4)cnc3n2)c1 [N-(4-fluoro-3-(3-morpholinoimidazo[1,2-a]pyrimidin-7-yl)phenyl)-2,2-dimethylpyrrolidine-1-carboxamide]
EC50 (Leishmania donovani [1]): > 50.1 µM

O=C(Nc1ccc(F)c(-c2cnn3c(Br)cnc3n2)c1)N1CCCC1 [Example 6, N-(3-(7-bromoimidazo[1,2-b][1,2,4]triazin-3-yl)-4-fluorophenyl)pyrrolidine-1-carboxamide]
EC50 (Leishmania donovani [1]): 0.251 to 10 µM
